System: primary normal human melanocytes
Assay: melanogenesis assay (C14-tyrosine incorporation)
Assay type: cell-based
Conditions: incubation for 3 days, average, n=3
Description: By way of example, the test for the compound 6-methyl-8-(2,6,6-trimethylcyclohex-1-en-1-yl)octa-3,5-dien-2-one is given.
A melanogenesis assay was carried out after incubation for 3 days of primary normal human melanocytes with test substance compared to control. The numbers given in the table indicate the melanogenesis rates based on the untreated control (=100%) (measured as C14-tyrosine incorporation).

SMILES: CC(=O)/C=C/C=C(\C)CCC1=C(C)CCCC1(C)C [(3E,5E)-6-methyl-8-(2,6,6-trimethylcyclohex-1-en-1-yl)octa-3,5-dien-2-one]
- melanogenesis rate based on the untreated control (=100%), measured as C14-tyrosine incorporation (0.1 μg/ml test substance): 127%
- melanogenesis rate based on the untreated control (=100%), measured as C14-tyrosine incorporation (1 μg/ml test substance): 157%

— patent US20070189984A1, “Agents for use on skin and/or hair containing quadruply substituted cyclohexene compounds” (BEIERSDORF AF,, priority 2003, published 2007)
